The target of this assay is T1, dCTP pyrophosphatase 1 (Homo sapiens, UniProt Q9H773).
T1 sequence (Q9H773 whole entry): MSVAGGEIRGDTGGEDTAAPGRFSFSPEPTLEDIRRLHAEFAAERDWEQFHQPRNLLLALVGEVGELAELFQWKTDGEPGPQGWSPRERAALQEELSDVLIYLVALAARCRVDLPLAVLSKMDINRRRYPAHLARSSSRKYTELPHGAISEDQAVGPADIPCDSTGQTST
In words: Inhibition of human dCTPase 1.
As to `CCc1c(C)nc(N2CCN(c3ccc(OC)cc3)CC2)nc1O`, half-maximal inhibition (IC50) was put at 1100 nM.

`CCn1c2ccccc2c2nnc(SCCN3CCCCC3)nc21` returned a half-maximal inhibitory concentration (IC50) of 940 nM.

`CCOc1ccc(C(=O)N2CCN(c3cnn(-c4ccccc4)c(=O)c3Cl)CC2)cc1` gave an IC50 of 1200 nM.

In the case of `CS(=O)(=O)N1CCN(c2cnn(-c3ccccc3)c(=O)c2Cl)CC1`, the half-maximal inhibitory concentration (IC50) came to 3200 nM.

Molecule `CCc1c(C)nc(N2CCN(c3cccc(OC)c3)CC2)nc1O` showed a 50% inhibitory concentration (IC50) of 1400 nM.

On to `COc1ccc2c(c1)c1nnc(SCCN3CCOCC3)nc1n2C`, for which the IC50 turned out to be 550 nM.

`O=C(c1ccco1)N1CCN(c2nc3ccccc3n3cnnc23)CC1` yielded a half-inhibitory concentration (IC50) of 980 nM.

The molecule `COc1ccccc1C(=O)N1CCN(c2cnn(-c3ccccc3)c(=O)c2Cl)CC1` had a half-maximal inhibitory concentration (IC50) of 660 nM.

Turning to `Cn1c2ccccc2c2nnc(SCCN3CCCCC3)nc21`, the half-inhibitory concentration (IC50) amounted to 1910 nM. This IC50 is about 2.9-fold higher than that of the molecule before.

The molecule `O=C(c1ccccc1Cl)N1CCN(c2ccc([N+](=O)[O-])c(NC3CC3)c2)CC1` yielded a half-maximal inhibitory concentration (IC50) of 1100 nM.

Molecule `CC(C)(C)c1cc(=O)[nH]c(N2CCN(Cc3ccc4c(c3)OCO4)CC2)n1` displayed an IC50 of 1100 nM.

For `CCNc1cc(N2CCN(C(=O)c3ccccc3C)CC2)ccc1[N+](=O)[O-]`, the IC50 is 810 nM.

The molecule `CCNc1cc(N2CCN(C(=O)c3ccc(OC)cc3)CC2)ccc1[N+](=O)[O-]` returned an IC50 of 1500 nM.

In the case of `CCNc1cc(N2CCN(C(=O)c3ccc(CC)cc3)CC2)ccc1[N+](=O)[O-]`, the IC50 was 910 nM.

A word on the IC50: it is the concentration that inhibits the measured activity by half. A low value points to greater potency.

For the origin of these results see ChEMBL document CHEMBL4052744, “Diverse heterocyclic scaffolds as dCTP pyrophosphatase 1 inhibitors. Part 1: Triazoles, triazolopyrimidines, triazinoindoles, quinoline hydrazones and arylpiperazines” (Bioorg Med Chem Lett, 2017).
